# pEC50: −log10 of the molar value. “And” between values parts separate entries of the source, which are not always exact repeats. Equal values may be shown once. The source made the active and inactive calls.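 The calls were made as follows: active = mean EC50 of 20 µM or lower; inactive = the rest.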
# Target: Neurotensin receptor type 2 (Homo sapiens) (UniProt O95665)
# Test: NTR2 agonist activity for selectivity, SAR follow-up, selectivity assay for NTR1 agonist project, imaging, NTR2-U2OS cells, beta-arrestin GFP imaging (AID 588495)
# Conditions: image-based GFP translocation
# Chain of Neurotensin receptor type 2 (Homo sapiens) (O95665 whole entry, looked up): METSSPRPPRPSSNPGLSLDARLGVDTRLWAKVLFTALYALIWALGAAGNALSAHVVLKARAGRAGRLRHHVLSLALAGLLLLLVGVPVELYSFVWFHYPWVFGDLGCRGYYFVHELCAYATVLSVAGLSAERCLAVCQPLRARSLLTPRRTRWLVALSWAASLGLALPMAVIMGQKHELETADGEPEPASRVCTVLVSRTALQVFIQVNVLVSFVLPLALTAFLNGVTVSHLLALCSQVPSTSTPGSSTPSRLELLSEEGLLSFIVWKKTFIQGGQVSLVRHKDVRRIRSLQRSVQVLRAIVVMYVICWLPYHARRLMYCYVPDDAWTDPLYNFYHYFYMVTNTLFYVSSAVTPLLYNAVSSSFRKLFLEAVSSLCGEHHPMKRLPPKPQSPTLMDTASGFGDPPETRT
SMILES,EC50,pEC50
COc1cc2nc(-c3ccccc3)nc(N3CCN(c4ccccc4OC)CC3)c2cc1OC,> 40 µM (inactive),–
COc1cc2nc(SCc3ccncc3)n(Cc3cccc(C(F)(F)F)c3)c(=N)c2cc1OC,> 40 µM (inactive),–
COc1cc2c3nnc(-c4ccc(F)cc4)c-3cn(Cc3ccc(C)cc3)c2cc1OC,–,5.38 and 5.48
Cc1ccc(C)c(-n2ncc3c(N4CCN(c5ccccc5)CC4)ncnc32)c1,> 40 µM (inactive),–
CCCSc1nc2cc(OC)c(OC)cc2c(=N)n1Cc1cccc(C(F)(F)F)c1,> 40 µM (inactive),–
CCOc1cc2c(N3CCN(c4ccccc4OC)CC3)nc(-c3ccc(OC)c(OC)c3)nc2cc1OC,> 40 µM (inactive),–
COc1ccccc1-c1nc(C(=O)N[C@@H](CC(C)C)C(=O)O)cn1-c1ccnc2cc(Cl)ccc12,> 40 µM (inactive),–
COc1cc2nc(C3CCC3)nc(N3CCN(c4ccccc4F)CC3)c2cc1OC,> 40 µM (inactive),–
COc1cc2ncnc(N3CCN(c4ccccc4OC)CC3)c2cc1OC,> 40 µM (inactive),–
Cc1ccc(-n2ncc3c(N4CCN(c5cc(C)ccc5C)CC4)ncnc32)c(C)c1,> 40 µM (inactive),–
COc1ccccc1-c1cc(C(=O)N[C@@H](CC(C)C)C(=O)O)nn1-c1ccnc2cc(Cl)ccc12,> 40 µM (inactive),–
COc1cccc(OC)c1-c1nc(C(=O)N[C@@H](CC(C)C)C(=O)O)cn1-c1ccnc2ccccc12,> 40 µM (inactive),–
COc1cc2c3nnc(-c4ccc(Cl)cc4)c-3cn(Cc3ccccc3)c2cc1OC,–,5.08
COc1ccccc1-c1nc(C(=O)N[C@@H](CC(C)C)C(=O)O)cn1-c1ccncc1,> 40 µM (inactive),–
COc1ccccc1N1CCN(c2ncnc3c2cnn3-c2ccc(C)cc2C)CC1,> 40 µM (inactive),–
COc1ccc(-n2ncc3c(N4CCN(c5ccccc5)CC4)ncnc32)cc1,> 40 µM (inactive),–
COc1ccc(Cn2c(SCc3cccc(C(F)(F)F)c3)nc3cc(OC)c(OC)cc3c2=N)cc1Cl,> 40 µM (inactive),–
COc1cccc(OC)c1-c1nc(C(=O)N[C@@H](CC(C)C)C(=O)O)cn1-c1ccc(C)cc1,> 40 µM (inactive),–
O=S(=O)(c1ccc(-c2csc(N/N=C/c3ccco3)n2)cc1)N1CCOCC1,> 40 µM (inactive),–
CN(C)S(=O)(=O)c1ccc(-c2csc(N/N=C/c3ccc(C(C)(C)C)cc3)n2)cc1,> 40 µM (inactive),–
COc1cccc2c(C(=O)N[C@@H](CC(C)C)C(=O)O)cn(-c3ccnc4ccccc34)c12,> 40 µM (inactive),–

SMILES,EC50,pEC50
COc1cc2nc(-c3ccccc3)nc(N3CCN(c4ccccc4F)CC3)c2cc1OC,> 40 µM (inactive),–
Cc1cccc(C)c1-c1nc(C(=O)N[C@@H](CC(C)C)C(=O)O)cn1-c1ccnc2cc(Cl)ccc12,> 40 µM (inactive),–
CCOc1cc2nc(-c3ccc(OC)c(OC)c3)nc(N3CCN(c4ccccc4F)CC3)c2cc1OC,> 40 µM (inactive),–
COc1ccccc1-c1cc(C(=O)O)nn1-c1ccnc2cc(Cl)ccc12,> 40 µM (inactive),–
COc1cc2nc(-c3ccccc3)nc(N3CCN(c4ccccc4)CC3)c2cc1OC,> 40 µM (inactive),–
COc1ccc(N2CCN(c3ncnc4c3cnn4-c3ccc(C)cc3C)CC2)cc1,> 40 µM (inactive),–
COc1ccc(Cn2c(SCc3ccc(C)cc3)nc3cc(OC)c(OC)cc3c2=N)cc1Cl,> 40 µM (inactive),–
CC(C)C[C@H](NC(=O)c1cn(-c2ccnc3ccccc23)c2ccccc12)C(=O)O,> 40 µM (inactive),–
CC(=O)c1ccc(N2CCN(c3ncnc4c3cnn4-c3ccc(C)cc3C)CC2)cc1,> 40 µM (inactive),–
COc1ccc(-c2nnc3c4cc(OC)c(OC)cc4n(Cc4ccccc4)cc2-3)cc1,> 40 µM (inactive),–
CCOc1ccc(-c2nnc3c4cc(OC)c(OC)cc4n(Cc4ccc(F)cc4)cc2-3)cc1,inactive,–
COc1cccc(N2CCN(c3nc(C4CCC4)nc4cc(OC)c(OC)cc34)CC2)c1,> 40 µM (inactive),–
COc1cc2nc(C3CCC3)nc(N3CCN(c4ccccc4Cl)CC3)c2cc1OC,> 40 µM (inactive),–
CC(C)C[C@H](NC(=O)c1cn(-c2ccnc3cc(Cl)ccc23)c(-c2c(Cl)cccc2Cl)n1)C(=O)O,> 40 µM (inactive),–
O=S(=O)(c1ccc(-c2csc(N/N=C/c3ccco3)n2)cc1)N1CCCC1,> 40 µM (inactive),–
COc1cc2nc(C3CCC3)nc(N3CCN(c4ccccc4)CC3)c2cc1OC,> 40 µM (inactive),–
COc1ccccc1-c1nc(C(=O)N[C@@H](CC(C)C)C(=O)O)cn1-c1ccnc2ccccc12,> 40 µM (inactive),–
CC(C)C[C@H](NC(=O)c1nc(-c2ccnc3ccccc23)c(-c2ccccc2)s1)C(=O)O,> 40 µM (inactive),–
COc1cc2c3nnc(-c4ccccc4)c-3cn(Cc3ccc(F)cc3)c2cc1OC,> 40 µM (inactive),–
COc1ccccc1-c1cc(C(=O)N[C@@H](CC(C)C)C(=O)OC(C)(C)C)nn1-c1ccnc2cc(Cl)ccc12,> 40 µM (inactive),–
COc1cc2nc(C3CCC3)nc(N3CCN(c4ccccc4C)CC3)c2cc1OC,> 40 µM (inactive),–

SMILES,EC50,pEC50
Cc1cccc(-n2ncc3c(N4CCN(c5ccccc5)CC4)ncnc32)c1,> 40 µM (inactive),–
COc1cc2c3nnc(-c4ccc(C)c(C)c4)c-3cn(Cc3ccc(F)cc3)c2cc1OC,–,5.36
Clc1ccccc1-n1ncc2c(N3CCN(c4ccccc4)CC3)ncnc21,> 40 µM (inactive),–
COc1cccc(OC)c1-c1nc(C(=O)N[C@@H](CC(C)C)C(=O)O)cn1-c1cccc2ccccc12,> 40 µM (inactive),–
CC(C)C[C@H](NC(=O)c1cn(-c2ccnc3cc(Cl)ccc23)c(-c2ccccc2)n1)C(=O)O,> 40 µM (inactive),–
Cc1ccc(Cn2cc3c(-c4ccc(F)cc4)nnc-3c3cc4c(cc32)OCO4)cc1,–,4.82
CC(C)C[C@H](NC(=O)c1cn(-c2ccncc2)c(-c2ccccc2)n1)C(=O)O,> 40 µM (inactive),–
Cc1ccc(-n2ncc3c(N4CCN(c5ccc(F)cc5)CC4)ncnc32)c(C)c1,> 40 µM (inactive),–
Cc1ccc(-n2ncc3c(N4CCN(c5ccccc5)CC4)ncnc32)cc1C,> 40 µM (inactive),–
O=C(O)c1nc(-c2ccnc3ccccc23)c(-c2ccccc2)s1,> 40 µM (inactive),–
COc1cc2c3nnc(-c4ccc(F)cc4)c-3cn(Cc3ccc(F)cc3)c2cc1OC,–,5.01
CC(C)C[C@H](NC(=O)c1nc(-c2ccncc2)c(-c2ccccc2)s1)C(=O)O,> 40 µM (inactive),–
CCc1ccc(-c2nnc3c4cc(OC)c(OC)cc4n(Cc4ccc(F)cc4)cc2-3)cc1,inactive,–
COc1cc2c3nnc(-c4ccccc4)c-3cn(Cc3ccc(C)cc3)c2cc1OC,> 40 µM (inactive),–
COc1cccc(OC)c1-c1cc(C(=O)O)nn1-c1ccnc2cc(Cl)ccc12,> 40 µM (inactive),–
CC(C)C[C@H](NC(=O)c1cn(-c2ccnc3ccccc23)c2c(OCc3ccccc3)cccc12)C(=O)O,> 40 µM (inactive),–
COc1cccc(OC)c1-c1nc(C(=O)N[C@@H](CC(C)C)C(=O)O)cn1-c1ccncc1,> 40 µM (inactive),–
c1ccc(N2CCN(c3ncnc4c3cnn4-c3ccccc3)CC2)cc1,> 40 µM (inactive),–
COc1ccc(-c2nc(C(=O)N[C@@H](CC(C)C)C(=O)O)cn2-c2ccnc3cc(Cl)ccc23)c(OC)c1,> 40 µM (inactive),–
COc1cc2c3nnc(-c4ccc(C)cc4)c-3cn(Cc3ccc(F)cc3)c2cc1OC,–,5.19
